Experimental findings from article PMC5591184 (2017) are described below.

Assay [1] relates to AG3(T2AG3)3 (DNA, G4) AGGGTTAGGGTTAGGGTTAGGG
Briefly: UV-vis absorption titration. The conditions noted are these: 100 mM NaCl; 10 mM Tris-HCl, 1 mM EDTA, pH 7.5, room temperature; 2 μM ZnTMPyP4.

In assay [2] the test system is (G4T4G4)2 (DNA, G4) GGGGTTTTGGGG
The assay is described as follows: UV-vis absorption titration. As to conditions: 100 mM NaCl; 10 mM Tris-HCl, 1 mM EDTA, pH 7.5, room temperature; 2 μM ZnTMPyP4.

A further assay concerns (TG4T)4 (DNA, G4) TGGGGT. Briefly: UV-vis absorption titration. The conditions noted are these: 100 mM KCl; 10 mM Tris-HCl, 1 mM EDTA, pH 7.5, room temperature; 2 μM ZnTMPyP4.
The test system of assay [3] is T-G8 (DNA, G4) AGGGTTATGGTTAGGGTTAGGG
The assay is described as follows: triplet decay, laser flash photolysis. As to conditions: 100 mM NaCl; 10 mM Tris-HCl, 1 mM EDTA, pH 7.5, room temperature; 2 μM ZnTMPyP4; intercalation 63%.

Assay [4] deals with T-G10 (DNA, G4) AGGGTTAGGTTTAGGGTTAGGG
The assay is described as follows: triplet decay, laser flash photolysis. As to conditions: 100 mM NaCl; 10 mM Tris-HCl, 1 mM EDTA, pH 7.5, room temperature; 2 μM ZnTMPyP4; intercalation 53%.

Regarding `C[n+]1ccc(-c2c3nc(c(-c4cc[n+](C)cc4)c4ccc([n-]4)c(-c4cc[n+](C)cc4)c4nc(c(-c5cc[n+](C)cc5)c5ccc2[n-]5)C=C4)C=C3)cc1.O.[Zn+2]`, the binding constants in assay [1] was 3.6e+06 M⁻¹; in assay [2], 100000 M⁻¹; in the assay on (TG4T)4 (DNA, G4) TGGGGT, 1e+06 M⁻¹. Moreover, the binding result in assay [3] and in assay [4] was “yes” in each case.
